Test results published in US20060134719A1, “Novel serine protease” (priority 2002, published 2006).
*: point of attachment. AMC = Cc1cc(=O)oc2cc(N*)ccc12; Boc = CC(C)(C)OC(=O)*; OBn = c1ccc(CO*)cc1

Target: T1, purified protein solution (signal-FLAG-ARS-extracellular protein) (Homo sapiens, UniProt Q7Z410, INS90FVSSFQKTELEASCVGCSVLNYRDGNSSVLVHFQ)
T1 construct: made in house; host or cells: HEK293-EBNA
T1 sequence (Q7Z410 with tags, fused parts or gaps INS90FVSSFQKTELEASCVGCSVLNYRDGNSSVLVHFQ): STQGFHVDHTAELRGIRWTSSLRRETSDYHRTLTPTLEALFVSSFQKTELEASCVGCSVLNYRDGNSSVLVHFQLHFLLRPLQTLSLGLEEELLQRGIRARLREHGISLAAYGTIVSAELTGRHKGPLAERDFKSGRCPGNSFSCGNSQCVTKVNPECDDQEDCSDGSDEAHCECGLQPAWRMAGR
T1 sequence (Q7Z410 with tags, fused parts or gaps): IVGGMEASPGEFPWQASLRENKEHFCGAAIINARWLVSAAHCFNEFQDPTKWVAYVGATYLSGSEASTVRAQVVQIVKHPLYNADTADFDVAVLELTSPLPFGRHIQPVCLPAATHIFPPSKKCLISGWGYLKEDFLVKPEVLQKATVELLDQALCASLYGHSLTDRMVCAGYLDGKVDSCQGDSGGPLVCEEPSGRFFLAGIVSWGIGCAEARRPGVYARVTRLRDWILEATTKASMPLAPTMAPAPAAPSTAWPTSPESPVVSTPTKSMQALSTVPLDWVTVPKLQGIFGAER
Experiment: Enzyme activity of purified recombinant protein using synthetic peptides
Format: biochemical
Conditions: substrate 200 μM or 400 μM, ammonium hydrogen carbonate buffer, 37° C. for one hour; versus buffer control
Procedure: Using a cell expressing the signal-FLAG-ARS-extracellular protein, a recombinant protein secreted into the liquid culture of the cell was extracted and purified. Specifically, the transfected HEK293EBNA cells were incubated by the same method as in Example 7 to about 80% confluence, from which the culture medium was then removed. Instead, a culture medium containing 4% serum was added, for further incubation under conditions of 37° C. and a carbon dioxide concentration of 5% for another 4 days. The culture supernatant was recovered 4 days later; filtered through a 0.22-μm filter (Zartor); and adsorbed on an ANTI-FLAG M2-AGAROSE AFFINITY GEL (Sigma) column equilibrated with TBS buffer by a routine method. Subsequently, about 50 ml of the TBS buffer was used for washing the column. Then, 6 ml of […] glycine hydrochloride solution of pH 2.2 was passed through the column to obtain each 1 ml fraction. To the separated fractions, 100 μl of 1 M Tris-HCl of pH 8 was immediately added to adjust the pH. The individual fractions thus obtained were confirmed by Western blotting using an antibody against the FLAG tag added to the N terminus (mouse anti-FLAG monoclonal antibody M2; Sigma). Specifically, the eluted fractions were electrophoresed on SDS/4% to 20% acrylamide gel (Daiichi Pure Chemicals Co., Ltd.) (under reducing conditions) and then transferred on PVDF membrane (Millipore) using a blotting apparatus. After adding Block Ace (DAINIPPON PHARMACEUTICAL CO., LTD.) for blocking to the transferred PVDF membrane, a biotinylated mouse anti-FLAG monoclonal antibody (M2; Sigma) and horseradish peroxidase-labeled streptoavidin (Amersham Pharmacia) were sequentially reacted. After reaction, it was confirmed that which eluted fractions contained the protein, using ECL Western blotting detection system (Amersham Pharmacia).
Using a synthetic peptides which have the C terminus labeled wit MCA (4-methyl-coumaryl-7-amide) by the same method as in Example 8, the cleavage activity of the enzyme purified in Example 10 was detected. Unless otherwise described, the method described in a paper (Yasuoka, S. et al., Am. J. Respir. Cell Mol Biol., Vol. 16, 300-308, 1997) was used. Specifically, using a synthetic peptides (Peptide Institute, Inc.) which have the C terminus labeled with MCA as substrates, the substrates were diluted with ammonium hydrogen carbonate buffer to become a final concentration of 200 μM or 400 μM in a 96-well plate. After the purified protein solution obtained in Example 10 or the ammonium hydrogen carbonate buffer as a control was added to the substrate solutions, the resulting mixtures were incubated at 37° C. for one hour. Subsequently, the fluorescence of AMC (7-amino-4-methyl-coumarin) released from the synthetic peptide by enzymatic cleavage was measured at a wavelength of 460 nm for measurement, using an excitation wavelength of 390 nm with a fluorescent plate reader (SAFIRE manufactured by TECAN). In FIG. 1, the open bar expresses buffer control, while the solid bar expresses the case of using purified protein solution. The first bar represents the case of using Boc-Glu(OBzl)-Ala-Arg-MCA as a substrate; the second bar represents the case of using Boc-Phe-Ser-Arg-MCA as a substrate; the third bar represents the case of using Boc-Leu-Ser-Thr-Arg-MCA as a substrate; the fourth bar represents the case of using Boc-Gln-Arg-Arg-MCA as a substrate; the fifth bar represents the case of using Suc-Ala-Ala-Pro-Phe-MCA as a substrate; the sixth bar represents the case of using Suc-Ala-Pro-Ala-MCA as a substrate; the seventh bar represents the case of using Boc-Glu-Lys-Lys-MCA as a substrate; the eighth bar represents the case of using Boc-Leu-Lys-Arg-MCA as a substrate; the ninth bar represents the case of using Boc-Leu-Gly-Arg-MCA as a substrate; and the tenth bar represents the case of using Boc-Asp(OBzl)-Pro-Arg-MCA as a substrate.

| Substance | cleavage of synthetic peptide by purified protein solution (fluorescence of released AMC) |
| --- | --- |
| Boc-Gln-Arg-Arg-{AMC} | showed the cleavage activities |
| Boc-Phe-Ser-Arg-{AMC} | showed the cleavage activities |
| Boc-Glu(OBn)-Ala-Arg-{AMC} | showed the cleavage activities |
